Test results taken from US11229664B2, “Treatment of myelosuppression” (priority 2012, dated 2022).
“And” between values parts separate entries of the source, which are not always exact repeats. Equal entries are not always repeated.

Test system: platelets
Assay: Clinical trial, metastatic pancreatic cancer: platelet count / thrombocytopenia grade
Type: in vivo, human
Parameters: Platelet count at start of cycle, Cycle 1: unit not given here; Platelet count at start of cycle, Cycle 4 / Platelet count: unit: ×10^3/μl blood
Settings: for Platelet count: open-label randomized trial, per arm
Excerpt: Male and non-pregnant, non-lactating, female patients, aged 18 to 75, with histologically confirmed metastatic adenocarcinoma of the pancreas were enrolled in the trial. […] Treatment consisted of a series of 28-day cycles, wherein the last day of one cycle (e.g., day 28, cycle 1) was immediately followed by the first day of the next cycle (e.g., day 1, cycle 2). […] Nab-paclitaxel and gemcitabine therapy was given as described in the prescribing information for Abraxane® and Gemzar®. See also, Von Hoff et al., 2011, J. […] As a substantially non-anticoagulant heparinoid, ODSH can be administered at a dose that is greater than the fully anticoagulant dose of unfractionated heparin, without concern for anticoagulant effect, as shown in the Results below. An initial run-in period was conducted in which ten patients were treated with the gemcitabine, nab-paclitaxel, and ODSH regimen described above. After all ten patients had completed at least one 28-day cycle, the data were reviewed and an open-label randomized study initiated, with two arms (ODSH arm and Control arm). In the ODSH arm, the dosing regimen was the same as in the run-in period (gemcitabine, nab-paclitaxel, and ODSH). In the Control arm, patients were given the same gemcitabine and nab-paclitaxel regimen as in the run-in period, but without ODSH. […] Platelet counts, total white blood cell counts, and absolute neutrophil counts were performed. Grading of thrombocytopenia and/or neutropenia was performed according to the following standards: [table]

[1] = ODSH 4 mg/kg bolus + 0.375 mg/kg/hr 48 h, adjunct to gemcitabine/nab-paclitaxel
[2] = ODSH adjunct to gemcitabine/nab-paclitaxel
[3] = ODSH adjunctive to gemcitabine and nab-paclitaxel, blood drawn before treatment that day, individual patients
[4] = all samples (FIG. 10A), ODSH adjunct to gemcitabine/nab-paclitaxel
[5] = day 15, first cycle, ODSH adjunct to gemcitabine/nab-paclitaxel

“substantially 2-O, 3-O desulfated heparin [ODSH]” was tested, and the “Patients with platelet count at beginning of fourth cycle greater than at beginning of first cycle” value [1] was 9 out of 10, the “Patients with platelet count at beginning of third cycle greater than at beginning of first cycle” value [1] was “Eight out of 9” and the “Patients with platelet count at beginning of second cycle greater than at beginning of first cycle” value (ODSH 4 mg/kg bolus + 0.375 mg/kg/hr 48 h, days 1, 8, 15 of 28-day cycles, adjunct to gemcitabine/nab-paclitaxel) was “Ten out of 10 and 10/10”. For the same substance, the “Patients exhibiting thrombocytopenia at the start of the second cycle” value [2] was “None”, the “Patients exhibiting thrombocytopenia at the start of the third cycle” value [2] was “one of 8” and the “Patients with platelet counts higher at the beginning of cycle 3 than at the beginning of cycle 2” value [2] was 6/9. For the same substance, the “Platelet Count, Cycle 1 Day 1” value (ODSH adjunctive to gemcitabine and nab-paclitaxel, blood drawn before treatment administration (before any chemotherapy), individual patients) was 313 ×10^3/μl blood and 264 ×10^3/μl blood and 191 ×10^3/μl blood and 274 ×10^3/μl blood and 276 ×10^3/μl blood and 120 ×10^3/μl blood and 271 ×10^3/μl blood and 342 ×10^3/μl blood and 429 ×10^3/μl blood and 180 ×10^3/μl blood, the “Platelet Count, Cycle 1 Day 8” value [3] was 205 ×10^3/μl blood and 167 ×10^3/μl blood and 108 ×10^3/μl blood and 150 ×10^3/μl blood and 239 ×10^3/μl blood and 86 ×10^3/μl blood (2×) and 230 ×10^3/μl blood and 206 ×10^3/μl blood and 214 ×10^3/μl blood and the “Platelet Count, Cycle 1 Day 15” value [3] was 135 ×10^3/μl blood and 178 ×10^3/μl blood and 108 ×10^3/μl blood and 75 ×10^3/μl blood and 220 ×10^3/μl blood and 76 ×10^3/μl blood and 181 ×10^3/μl blood and 134 ×10^3/μl blood and 260 ×10^3/μl blood and 63 ×10^3/μl blood. For the same substance, the “Platelet Count, Cycle 2 Day 1” value [3] was 419 ×10^3/μl blood and 322 ×10^3/μl blood and 312 ×10^3/μl blood and 574 ×10^3/μl blood and 445 ×10^3/μl blood and 175 ×10^3/μl blood and 417 ×10^3/μl blood and 614 ×10^3/μl blood and 532 ×10^3/μl blood and 274 ×10^3/μl blood, the “Platelet Count, Cycle 2 Day 8” value [3] was 434 ×10^3/μl blood and 336 ×10^3/μl blood and 241 ×10^3/μl blood and 424 ×10^3/μl blood and 05 ×10^3/μl blood and 83 ×10^3/μl blood and 402 ×10^3/μl blood and 375 ×10^3/μl blood and 257 ×10^3/μl blood and 95 ×10^3/μl blood and the “Platelet Count, Cycle 2 Day 15” value [3] was 209 ×10^3/μl blood and 207 ×10^3/μl blood and 132 ×10^3/μl blood and 167 ×10^3/μl blood and 186 ×10^3/μl blood (2×) and 70 ×10^3/μl blood and 178 ×10^3/μl blood and 170 ×10^3/μl blood and 54 ×10^3/μl blood. The “Platelet Count, Cycle 3 Day 1” value [3] was 510 ×10^3/μl blood and 327 ×10^3/μl blood and 362 ×10^3/μl blood and 655 ×10^3/μl blood and 418 ×10^3/μl blood and 123 ×10^3/μl blood and 487 ×10^3/μl blood and 628 ×10^3/μl blood and 387 ×10^3/μl blood and −361 ×10^3/μl blood, the “Platelet Count, Cycle 3 Day 8” value [3] was 435 ×10^3/μl blood and 325 ×10^3/μl blood and 362 ×10^3/μl blood (2×) and 388 ×10^3/μl blood and 223 ×10^3/μl blood and 119 ×10^3/μl blood and 355 ×10^3/μl blood and 371 ×10^3/μl blood and 179 ×10^3/μl blood and the “Platelet Count, Cycle 3 Day 15” value [3] was 207 ×10^3/μl blood and 170 ×10^3/μl blood and 163 ×10^3/μl blood and 188 ×10^3/μl blood and 171 ×10^3/μl blood (2×) and 63 ×10^3/μl blood and 172 ×10^3/μl blood and 189 ×10^3/μl blood and 71 ×10^3/μl blood. The “Platelet Count, Cycle 4 Day 1” value [3] was 586 ×10^3/μl blood and 402 ×10^3/μl blood and 292 ×10^3/μl blood and 478 ×10^3/μl blood and 667 ×10^3/μl blood and 184 ×10^3/μl blood and 406 ×10^3/μl blood and 626 ×10^3/μl blood and 382 ×10^3/μl blood and 387 ×10^3/μl blood, the “Platelet Count, Cycle 4 Day 8” value [3] was 464 ×10^3/μl blood and 339 ×10^3/μl blood and 355 ×10^3/μl blood and 468 ×10^3/μl blood and 193 ×10^3/μl blood and 188 ×10^3/μl blood and 507 ×10^3/μl blood and 448 ×10^3/μl blood and 185 ×10^3/μl blood and the “Platelet Count, Cycle 4 Day 15” value [3] was 203 ×10^3/μl blood and 170 ×10^3/μl blood and 140 ×10^3/μl blood and 163 ×10^3/μl blood and 149 ×10^3/μl blood and 129 ×10^3/μl blood and 339 ×10^3/μl blood and 169 ×10^3/μl blood and 202 ×10^3/μl blood and 78 ×10^3/μl blood. The “Platelet Count, Cycle 5 Day 1” value [3] was 499 ×10^3/μl blood and 351 ×10^3/μl blood and 266 ×10^3/μl blood and 389 ×10^3/μl blood and 275 ×10^3/μl blood and 106 ×10^3/μl blood and 512 ×10^3/μl blood and 607 ×10^3/μl blood and 427 ×10^3/μl blood and −288 ×10^3/μl blood, the “Platelet Count, Cycle 5 Day 8” value [3] was 231 ×10^3/μl blood and 288 ×10^3/μl blood and 241 ×10^3/μl blood and 325 ×10^3/μl blood and 192 ×10^3/μl blood and 94 ×10^3/μl blood and 378 ×10^3/μl blood and 377 ×10^3/μl blood and 403 ×10^3/μl blood and 188 ×10^3/μl blood and the “Platelet Count, Cycle 5 Day 15” value [3] was 132 ×10^3/μl blood and 169 ×10^3/μl blood and 153 ×10^3/μl blood and 109 ×10^3/μl blood and 58 ×10^3/μl blood and 193 ×10^3/μl blood and 194 ×10^3/μl blood and 72 ×10^3/μl blood. The “Platelet Count, Cycle 6 Day 1” value [3] was 288 ×10^3/μl blood and 370 ×10^3/μl blood and 294 ×10^3/μl blood and 489 ×10^3/μl blood and 114 ×10^3/μl blood and 371 ×10^3/μl blood and 503 ×10^3/μl blood and 275 ×10^3/μl blood, the “Platelet Count, Cycle 6 Day 8” value [3] was 384 ×10^3/μl blood and 321 ×10^3/μl blood and 207 ×10^3/μl blood and 336 ×10^3/μl blood and 85 ×10^3/μl blood and 313 ×10^3/μl blood and 493 ×10^3/μl blood and 148 ×10^3/μl blood and the “Platelet Count, Cycle 6 Day 15” value [3] was 169 ×10^3/μl blood and 162 ×10^3/μl blood and 128 ×10^3/μl blood and 102 ×10^3/μl blood and 54 ×10^3/μl blood and 338 ×10^3/μl blood and 164 ×10^3/μl blood and 72 ×10^3/μl blood. For the same substance, the “Mean and median platelet counts at day 15 of treatment cycles 2 and 3” value [4] was “remained in the normal range”, the “Mean and median platelet counts on the first day of treatment cycles 2 and 3” value [4] was “above 150,000” and the “Platelet count at start of cycle, Cycle 1” value (day 1 of cycle 1, before any chemotherapy, ODSH adjunctive to gemcitabine and nab-paclitaxel, individual patients) was 264 and 191 and 274 and 276 and 120 and 271 and 342 and 429 and 180 and 313. The “Platelet count at start of cycle, Cycle 2” value (day 1 of cycle 2, ODSH adjunctive to gemcitabine and nab-paclitaxel, individual patients) was 322 and 312 and 574 and 445 and 175 and 417 and 614 and 537 and 274 and 419, the “Platelet count at start of cycle, Cycle 3” value (day 1 of cycle 3, ODSH adjunctive to gemcitabine and nab-paclitaxel, individual patients) was 327 and 362 and 655 and 418 and 123 and 628 and 387 and 361 and 510 and the “Platelet count at start of cycle, Cycle 4” value (day 1 of cycle 4, ODSH adjunctive to gemcitabine and nab-paclitaxel, individual patients) was 402 and 292 and 478 and 667 and 184 and 406 and 626 and 382 and 387 and 586. For the same substance, the “Platelet count at start of cycle, Cycle 5” value (day 1 of cycle 5, ODSH adjunctive to gemcitabine and nab-paclitaxel, individual patients) was 351 and 389 and 275 and 512 and 427 and 288 and 499, the “Platelet count at start of cycle, Cycle 6” value (day 1 of cycle 6, ODSH adjunctive to gemcitabine and nab-paclitaxel, individual patients) was 489 and 371 and 503 and 275 and 288 and the “Platelet count at start of cycle, Cycle 7” value (day 1 of cycle 7, ODSH adjunctive to gemcitabine and nab-paclitaxel, individual patients) was 454. The “Patients with no more than mild thrombocytopenia after two doses of treatment” value [5] was 90%, the “Patients with no thrombocytopenia after two doses of treatment” value [5] was 40% and the “Patients with no thrombocytopenia after five doses of treatment” value (day 15 of cycle 2, ODSH adjunct to gemcitabine/nab-paclitaxel) was 7 out of 10. The “Patients thrombocytopenic at the beginning of cycles 2 and 3” value (mild (Grade 1), after three or six doses of gemcitabine and nab-paclitaxel with ODSH) was “one”, the Platelet count (Cycle 1 Day 1) was 248 and the Platelet count (Cycle 1 Day 15) was 143. It also gave a Platelet count (Cycle 2 Day 1) of 336, a Platelet count (Cycle 2 Day 15) of 135 and a Platelet count (Cycle 3 Day 1) of 393. The Platelet count (Cycle 3 Day 15) was 171, the Platelet count (Cycle 4 Day 1) was 404 and the Platelet count (Cycle 4 Day 15) was 156. It also gave a Platelet count (Cycle 5 Day 1) of 389.
